Results from ChEMBL document CHEMBL4402510, “Caprazamycins: Promising lead structures acting on a novel antibacterial target MraY” (Eur J Med Chem, 2019).
Converted amounts (≈) assume the structure as drawn.

Key:
[1] = test system: Mycobacterium tuberculosis; assay: Antibacterial activity against Mycobacterium tuberculosis Kurono; format: functional
[2] = test system: Mycobacterium tuberculosis; assay: Antibacterial activity against Mycobacterium tuberculosis H37Rv; format: functional
Staphylococcus aureus [3] = assay: Antibacterial activity against methicillin resistant Staphylococcus aureus MS16526; format: functional
[4] = test system: Mycolicibacterium smegmatis; assay: Antibacterial activity against Mycobacterium smegmatis ATCC 607; format: functional
Mycolicibacterium vaccae = assay: Antibacterial activity against Mycobacterium vaccae ATCC 15483; format: functional
Mycolicibacterium phlei = assay: Antibacterial activity against Mycobacterium phlei; format: functional
[5] = test system: Mycobacterium tuberculosis; assay: Antibacterial activity against Mycobacterium tuberculosis JCM 6384; format: functional
[6] = test system: Mycobacterium avium subsp. paratuberculosis; assay: Antibacterial activity against Mycobacterium avium subsp. paratuberculosis ATCC 43015; format: functional
Staphylococcus aureus [7] = assay: Antibacterial activity against methicillin resistant Staphylococcus aureus No. 5; format: functional
Staphylococcus aureus [8] = assay: Antibacterial activity against Staphylococcus aureus FDA 209P; format: functional
[9] = Antibacterial activity against Mycobacterium avium subsp. avium ATCC 25291; format: functional
Escherichia coli [10] = assay: Antibacterial activity against Escherichia coli expressing MraY; format: functional, organism-based
Escherichia coli [11] = assay: Antibacterial activity against Escherichia coli K-12; format: functional
Bacillus subtilis = assay: Antibacterial activity against Bacillus subtilis PCI 219; format: functional

| SMILES | MIC [1] [µg/mL] | MIC [2] [µg/mL] | MIC (Staphylococcus aureus [3]) [µg/mL] | MIC [4] [µg/mL] | MIC (Mycolicibacterium vaccae) [µg/mL] | MIC (Mycolicibacterium phlei) [µg/mL] | MIC [5] [µg/mL] | MIC [6] [µg/mL] | MIC (Staphylococcus aureus [7]) [µg/mL] | MIC (Staphylococcus aureus [8]) [µg/mL] | MIC [9] [µg/mL] | IC50 (Escherichia coli [10]) [µM] | MIC (Escherichia coli [11]) [µg/mL] | MIC (Bacillus subtilis) [µg/mL] | MIC50 (Escherichia coli [10]) [µg/mL] |
| --- | --- | --- | --- | --- | --- | --- | --- | --- | --- | --- | --- | --- | --- | --- | --- |
| C=CCCCCCCCCCOC(=O)C1=CCN(C)[C@@H]([C@H](O[C@@H]2O[C@H](CN)[C@@H](O)[C@H]2O)[C@H]2O[C@@H](n3ccc(=O)[nH]c3=O)[C@H](O)[C@@H]2O)C(=O)N1C | 12.5 (≈ 17.6 µM) | 12.5 (≈ 17.6 µM) | > 100 | 25 (≈ 35.2 µM) | 50 (≈ 70.4 µM) | 50 (≈ 70.4 µM) | 12.5 (≈ 17.6 µM) | 6.25 (≈ 8.81 µM) | > 100 | 1.56 (≈ 2.2 µM) | 12.5 (≈ 17.6 µM) | – | – | – | – |
| NC[C@H]1O[C@@H](OC[C@H]2O[C@@H](n3ccc(=O)[nH]c3=O)C[C@@H]2O)[C@H](O)[C@@H]1O | – | – | – | – | – | – | – | – | – | – | – | 80 | – | – | – |
| CN(C)C[C@H]1O[C@@H](OC[C@H]2O[C@@H](n3ccc(=O)[nH]c3=O)[C@H](O)[C@@H]2O)[C@H](O)[C@@H]1O | – | – | – | – | – | – | – | – | – | – | – | > 1000 | – | – | – |
| NC[C@@H]1C[C@@H](O)[C@H](OC[C@H]2O[C@@H](n3ccc(=O)[nH]c3=O)[C@H](O)[C@@H]2O)O1 | – | – | – | – | – | – | – | – | – | – | – | > 1000 | – | – | – |
| CCCCCCCOc1ccc(NC(=O)C2=CCN(C)[C@@H]([C@H](O[C@@H]3O[C@H](CN)[C@@H](O)[C@H]3O)[C@H]3O[C@@H](n4ccc(=O)[nH]c4=O)[C@H](O)[C@@H]3O)C(=O)N2C)cc1 | 0.78 (≈ 1.04 µM) | 0.78 (≈ 1.04 µM) | < 0.2 | 0.78 (≈ 1.04 µM) | 6.25 (≈ 8.37 µM) | 3.13 (≈ 4.19 µM) | 0.1 (≈ 0.134 µM) | 0.2 (≈ 0.268 µM) | 25 (≈ 33.5 µM) | 25 (≈ 33.5 µM) | 0.78 (≈ 1.04 µM) | – | 3.13 (≈ 4.19 µM) | 50 (≈ 67 µM) | – |
| CCCCCCCCCCCCCOC(=O)C1=CCN(C)[C@@H]([C@H](O[C@@H]2O[C@H](CN)[C@@H](O)[C@H]2O)[C@H]2O[C@@H](n3ccc(=O)[nH]c3=O)[C@H](O)[C@@H]2O)C(=O)N1C | 50 (≈ 67.6 µM) | 6.25 (≈ 8.45 µM) | > 100 | 6.25 (≈ 8.45 µM) | 3.13 (≈ 4.23 µM) | 25 (≈ 33.8 µM) | 12.5 (≈ 16.9 µM) | 12.5 (≈ 16.9 µM) | 0.78 (≈ 1.05 µM) | 12.5 (≈ 16.9 µM) | 3.13 (≈ 4.23 µM) | – | – | 25 (≈ 33.8 µM) | – |
| CCCCCCCCCCOC(=O)C1=CCN(C)[C@@H]([C@H](O[C@@H]2O[C@H](CN)[C@@H](O)[C@H]2O)[C@H]2O[C@@H](n3ccc(=O)[nH]c3=O)[C@H](O)[C@@H]2O)C(=O)N1C | 12.5 (≈ 17.9 µM) | 12.5 (≈ 17.9 µM) | – | 50 (≈ 71.7 µM) | 0.78 (≈ 1.12 µM) | > 100 | 50 (≈ 71.7 µM) | 12.5 (≈ 17.9 µM) | – | > 100 | 12.5 (≈ 17.9 µM) | – | – | – | – |
| CCCCCCCCCCCCCCCC(=O)O[C@H]1CN(C)[C@@H]([C@H](O)[C@H]2O[C@@H](n3ccc(=O)[nH]c3=O)[C@H](O)[C@@H]2O)C(=O)N(C)[C@@H]1C(=O)O | – | – | – | – | – | – | – | – | – | – | – | – | – | – | > 100 |
| CCCCCCc1ccc(NC(=O)C2=CCN(C)[C@@H]([C@H](O[C@@H]3O[C@H](CN)[C@@H](O)[C@H]3O)[C@H]3O[C@@H](n4ccc(=O)[nH]c4=O)[C@H](O)[C@@H]3O)C(=O)N2C)cc1 | 0.78 (≈ 1.09 µM) | 0.78 (≈ 1.09 µM) | – | 1.56 (≈ 2.18 µM) | 12.5 (≈ 17.4 µM) | 0.39 (≈ 0.544 µM) | 6.25 (≈ 8.72 µM) | 0.78 (≈ 1.09 µM) | 12.5 (≈ 17.4 µM) | > 100 | 0.2 (≈ 0.279 µM) | – | – | – | – |
| CCCCCCCCCCCCCCCCCCCCNC(=O)C1=CCN(C)[C@@H]([C@H](O[C@@H]2O[C@H](CN)[C@@H](O)[C@H]2O)[C@H]2O[C@@H](n3ccc(=O)[nH]c3=O)[C@H](O)[C@@H]2O)C(=O)N1C | 1.56 (≈ 1.86 µM) | 1.56 (≈ 1.86 µM) | – | 6.25 (≈ 7.47 µM) | 12.5 (≈ 14.9 µM) | 1.56 (≈ 1.86 µM) | > 100 | 50 (≈ 59.7 µM) | > 100 | > 100 | 25 (≈ 29.9 µM) | – | – | – | – |
| CCCCCCCCCCCCCCCCCNC(=O)C1=CCN(C)[C@@H]([C@H](O[C@@H]2O[C@H](CN)[C@@H](O)[C@H]2O)[C@H]2O[C@@H](n3ccc(=O)[nH]c3=O)[C@H](O)[C@@H]2O)C(=O)N1C | 6.25 (≈ 7.86 µM) | 3.13 (≈ 3.94 µM) | – | 1.56 (≈ 1.96 µM) | > 100 | > 100 | 6.25 (≈ 7.86 µM) | 6.25 (≈ 7.86 µM) | – | – | 1.56 (≈ 1.96 µM) | – | – | – | – |
| CC/C=C/CCCCCCCCCCOC(=O)C1=CCN(C)[C@@H]([C@H](O[C@@H]2O[C@H](CN)[C@@H](O)[C@H]2O)[C@H]2O[C@@H](n3ccc(=O)[nH]c3=O)[C@H](O)[C@@H]2O)C(=O)N1C | 6.25 (≈ 8.31 µM) | 12.5 (≈ 16.6 µM) | 25 (≈ 33.3 µM) | 6.25 (≈ 8.31 µM) | 25 (≈ 33.3 µM) | 12.5 (≈ 16.6 µM) | 12.5 (≈ 16.6 µM) | 6.25 (≈ 8.31 µM) | > 100 | 0.78 (≈ 1.04 µM) | 25 (≈ 33.3 µM) | – | – | – | – |
| CCc1ccc(NC(=O)C2=CCN(C)[C@@H]([C@H](O[C@@H]3O[C@H](CN)[C@@H](O)[C@H]3O)[C@H]3O[C@@H](n4ccc(=O)[nH]c4=O)[C@H](O)[C@@H]3O)C(=O)N2C)cc1 | 3.13 (≈ 4.74 µM) | 6.25 (≈ 9.46 µM) | – | > 100 | > 100 | 12.5 (≈ 18.9 µM) | > 100 | > 100 | > 100 | > 100 | 100 (≈ 151 µM) | – | – | – | – |
| CCCCOc1ccc(NC(=O)C2=CCN(C)[C@@H]([C@H](O[C@@H]3O[C@H](CN)[C@@H](O)[C@H]3O)[C@H]3O[C@@H](n4ccc(=O)[nH]c4=O)[C@H](O)[C@@H]3O)C(=O)N2C)cc1 | 3.13 (≈ 4.44 µM) | 1.56 (≈ 2.21 µM) | 3.13 (≈ 4.44 µM) | 25 (≈ 35.5 µM) | 100 (≈ 142 µM) | > 100 | 0.78 (≈ 1.11 µM) | 0.78 (≈ 1.11 µM) | > 100 | > 100 | 3.13 (≈ 4.44 µM) | – | > 100 | > 100 | – |
| CCCCCCCCCCCCCCc1ccc(NC(=O)C2=CCN(C)[C@@H]([C@H](O[C@@H]3O[C@H](CN)[C@@H](O)[C@H]3O)[C@H]3O[C@@H](n4ccc(=O)[nH]c4=O)[C@H](O)[C@@H]3O)C(=O)N2C)cc1 | 3.13 (≈ 3.78 µM) | 3.13 (≈ 3.78 µM) | 0.39 (≈ 0.47 µM) | 6.25 (≈ 7.54 µM) | 6.25 (≈ 7.54 µM) | 3.13 (≈ 3.78 µM) | 0.78 (≈ 0.941 µM) | 0.39 (≈ 0.47 µM) | 12.5 (≈ 15.1 µM) | 12.5 (≈ 15.1 µM) | 6.25 (≈ 7.54 µM) | – | > 100 | > 100 | – |
| CCCCCCCC/C=C/CCCCCCCCNC(=O)C1=CCN(C)[C@@H]([C@H](O[C@@H]2O[C@H](CN)[C@@H](O)[C@H]2O)[C@H]2O[C@@H](n3ccc(=O)[nH]c3=O)[C@H](O)[C@@H]2O)C(=O)N1C | 3.13 (≈ 3.88 µM) | 3.13 (≈ 3.88 µM) | 0.78 (≈ 0.967 µM) | 1.56 (≈ 1.93 µM) | 1.56 (≈ 1.93 µM) | 1.56 (≈ 1.93 µM) | 1.56 (≈ 1.93 µM) | 0.78 (≈ 0.967 µM) | 6.25 (≈ 7.74 µM) | 6.25 (≈ 7.74 µM) | 6.25 (≈ 7.74 µM) | – | > 100 | > 100 | – |
| CCCCCCCc1ccc(NC(=O)C2=CCN(C)[C@@H]([C@H](O[C@@H]3O[C@H](CN)[C@@H](O)[C@H]3O)[C@H]3O[C@@H](n4ccc(=O)[nH]c4=O)[C@H](O)[C@@H]3O)C(=O)N2C)cc1 | 0.78 (≈ 1.07 µM) | 0.78 (≈ 1.07 µM) | 50 (≈ 68.4 µM) | < 0.2 | 1.56 (≈ 2.13 µM) | 25 (≈ 34.2 µM) | 0.1 (≈ 0.137 µM) | 0.05 (≈ 0.0684 µM) | < 0.2 | 12.5 (≈ 17.1 µM) | 1.56 (≈ 2.13 µM) | – | – | 6.25 (≈ 8.55 µM) | – |
| CCCCCCCCCCCCCCCCCCCCCNC(=O)C1=CCN(C)[C@@H]([C@H](O[C@@H]2O[C@H](CN)[C@@H](O)[C@H]2O)[C@H]2O[C@@H](n3ccc(=O)[nH]c3=O)[C@H](O)[C@@H]2O)C(=O)N1C | 0.78 (≈ 0.916 µM) | 1.56 (≈ 1.83 µM) | > 100 | 6.25 (≈ 7.34 µM) | 12.5 (≈ 14.7 µM) | 12.5 (≈ 14.7 µM) | > 100 | > 100 | > 100 | 1.56 (≈ 1.83 µM) | 50 (≈ 58.7 µM) | – | – | – | – |
